Type in all cases: biochemical
The target of one test is T1, c-Raf (Homo sapiens, UniProt P04049).
T1 construct: made in house; host or cells: baculovirus, High-5 (Hi5) insect cells, co-infected with FLAG-vSrc virus
The experiment in a line: c-Raf HTRF assay with 6H-MEK as substrate (dose response). The following applies: cloned human c-Raf with EE-tag. The protocol:
(§1) Kinase Enzyme Inhibition Assay (IC50)
c-Raf HTRF Assay with 6H-MEK as Substrate (Dose Response)
The assay utilizes 6H-MEK as the substrate. Upon c-Raf phosphorylation, phosphorylated 6H-MEK is detected with rabbit anti-phospho-MEK1/2, Eu-labeled anti-rabbit, and APC-labeled anti-6H antibodies.
(§2) Reagents and Instruments:
Enzyme: cloned human c-Raf with EE-tag; phosphorylated (co-expressed with v-src-FLAG in baculovirus Hi5 cells), 0.2 mg/mL (2.74 μM assuming a molecular weight of 73 kD) stored at −15° C.
Substrate: WT full-length 6H-MEK, 4.94 mg/mL (154.4 μM assuming a MW of 32 kD) stored at −15° C.
(§3) Antibodies: Rabbit (α-P-(Ser 217/221)-MEK-1/2 Ab (from Cell Signaling, Cat. #9121B, Lot 14); Eu-(α-rabbit IgG (from Wallac, Cat. # AD0083, Lot 318663, 710 ug/mL, 4.4 μM); (α-6H-SureLight-APC (from Martek, Cat. #AD0059H, Lot E012AB01, 3.03 μM).
(§4) Reader: Envision from PerkinElmer, HTRF reading mode with 412 mirror
(§5) Assay Plate Matrix all-black polypropylene plates (Cat. #4344)
(§6) Others: Weidman 384 polypropylene plates (REMP) for compound plate.
(§7) (1) Prepare Kinase Assay Buffer (KAB): 50 mM HEPES (HyClone) pH7, 10 mM MgCl2, 1 mM DTT, 0.1 mM […], and 0.3 mg/ml BSA.
(§8) (2) Prepare 6H-MEK (150 nM) in KAB. Add 12 μl/well to the assay plate.
(§9) (3) Prepare ATP (66 μM) in KAB.
(§10) (4) Dilute compounds to 2.4 mM and any positive controls to 480 μM in DMSO. Perform 10-point 3× dilution in DMSO. Withdraw 2.5 μl/well of DMSO solution and add to 27.5 μl/well ATP solution in (3).
(§11) (5) Mix, then add 6 μl/well of solution in (4) to the assay plate for a DMSO concentration of 2.1% during MEK phosphorylation.
(6) Prepare c-Raf (12 nM) in KAB.
(7) Add 6 μl/well of KAB in columns 1-2 and 6 μl/well of c-Raf in columns 3-24.
(§12) (8) Incubate at 37° C. for 30 min.
(9) Prepare rabbit (α-P-(Ser 217/221)-MEK-1/2 Ab (1:240 from stock) in AB1: 50 mM HEPES pH7, 0.2 mg/ml BSA, and 43 mM EDTA.
(§13) (10) To stop reaction, add 6 μl/well of solution from (9) to the assay plate and incubate at 37° C. for 30 min.
(11) Prepare Eu-(α-rabbit IgG (9 nM) and (α-6H-SureLight-APC (120 nM) in AB2: 50 mM HEPES pH7 and 0.2 mg/ml BSA.
(§14) (12) Add 6 μl/well of solution from (11) to the assay plate.
(§15) (13) For determining the spectrum cross talk factor, prepare 2 samples following steps (1) to (10). For the blank sample, add 6 μl/well of AB2. For the cross talk factor sample, add 6 μl/well of Eu-anti rabbit IgG (9 nM).
(§16) (14) Incubate at room temperature for 1.5 hours.
(§17) (15) Read HTRF signals at 615 nm and 665 nm on the Envision. Normalize HTRF signals after spectrum cross-talk correction.
Expression and Purification of c-Raf
N terminal EE-tagged c-Raf was expressed in High-5 cells. A five liter culture was co-transfected with virus for EE-c-Raf and FLAG-vSrc at a ratio of 1:2 and harvested after 48 hours. The cell pellet was lysed in TBS containing 5 mM EDTA, 50 mM KF, 20 mM Na pyrophosphate, 20 mM β-glycerolphsphate, 0.5 mM Na VO3, 1% NP-40 (w/v) and Complete Protease Tablets. The lysate was centrifuged at 20,000×g for 1 hour. The supernatant was incubated with 8 ml of anti-EE tag-Protein G Sepharose for 2 hours at 4° C. The resin was then washed with 30 volumes of the above buffer. The c-Raf protein was eluted by incubation with the above buffer containing 100 mg/ml of EE peptide for 1 hour at 4° C. Protein was concentrated using an Amicon Stir Cell with an YM10 membrane. The concentrated protein was dialyzed against TBS containing 1 mM DTT and 30% Glycerol. Protein concentration was determined by the BioRad DC method.
E. coli cells containing the plasmid for the expression of 6H-MEK1 (62-393) were grown in Rich Media and induced with 1 mM IPTG for 24 hours at 22° C. The cell pellet was resuspent in 50 mM potassium phosphate buffer, pH 8.0, 300 mM NaCl, 5 mM MgCl2, 10 mM CHAPS, 2 mM TCEP, and Complete Protease Inhibitor Tablets. Cells were disrupted by sonication. The lysate was cleared by centrifugation at 13,000×g for 45 minutes. […]
Background: TR-FRET usually uses a lanthanide donor and a delayed reading to cut background.

Another test addresses T2, b-Raf V600E Mutant (Homo sapiens, UniProt P15056, V600E).
T2 construct: recombinant human b-Raf residues 416-end containing a V600E mutation; purchased Upstate 14-5M; host or cells: baculovirus, Sf21 insect cells
Kind of test: b-Raf V600E mutant HTRF assay with 6H-MEK as substrate (dose response). The following applies: recombinant human b-Raf residues 416-end with V600E mutation, GST-tag.
Description: as §1
b-Raf V600E Mutant HTRF Assay with 6H-MEK as Substrate (Dose Response)
The assay utilizes 6H-MEK as the substrate. Upon b-Raf V600E phosphorylation, phosphorylated 6H-MEK is detected with rabbit anti-phospho-MEK1/2, Eu-labeled anti-rabbit, and APC-labeled anti-6H antibodies.
as §2
Enzyme: recombinant human b-Raf residues 416-end containing a V600E mutation with N-terminal GST-tag from Upstate; (expressed by baculovirus in Sf21 insect cells), 0.26 mg/mL ([…] assuming a molecular weight of 67.3 kD) Cat. #14-5M, Lot #25633AU, stored at −80° C.
Substrate: WT full-length 6H-MEK from C. Belunis (May 26, 2004), 4.94 mg/mL (154.4 μM assuming a MW of 32 kD) stored at −15° C.
as §3, §4, §5, §6, §7, §8, §9
(4) Dilute compounds to 2.4 mM and positive controls to 480 μM in DMSO. Perform 10-point 3× dilution in DMSO. Withdraw 2.5 μl/well of DMSO solution and add to 27.5 μl/well ATP solution in (3).
as §11
(6) Prepare b-Raf V600E ([…]) in KAB.
(7) Add 6 μl/well of KAB in columns 1-2 and 6 μl/well of b-Raf V600E in columns 3-24.
as §12
(9) Prepare rabbit α-P-(Ser 217/221)-MEK-1/2 Ab (1:200 from stock) in AB1: 50 mM HEPES pH7, 0.2 mg/ml BSA, and 43 mM EDTA.
as §13
(11) Prepare Eu-α-rabbit IgG (9 nM) and α-6H-SureLight-APC (180 nM) in AB2: 50 mM HEPES pH7 and 0.2 mg/ml BSA.
as §14, §15, §16, §17

For another test, the target named is T3, b-Raf Wild-Type (Homo sapiens, UniProt P15056).
T3 construct: recombinant human b-Raf residues 416-end; purchased Upstate 14-530M; host or cells: baculovirus, Sf21 insect cells
Kind of test: b-Raf wild-type HTRF assay with 6H-MEK as substrate (dose response). The following applies: recombinant human b-Raf wild-type residues 416-end, GST-tag. The protocol:
as §1
b-Raf Wild-Type HTRF Assay with 6H-MEK as Substrate (Dose Response)
The assay utilizes 6H-MEK as the substrate. Upon b-Raf WT phosphorylation, phosphorylated 6H-MEK is detected with rabbit anti-phospho-MEK1/2, Eu-labeled anti-rabbit, and APC-labeled anti-6H antibodies.
as §2
Enzyme: recombinant human b-Raf residues 416-end with N-terminal GST-tag from Upstate; (expressed by baculovirus in Sf21 insect cells), 0.26 mg/mL (3.87 μM assuming a molecular weight of 67.2 kD) Cat. #14-530M, Lot #25502AU, stored at −80° C.
Substrate: WT full-length 6H-MEK from C. Belunis (5126104), 4.94 mg/mL (154.4 μM assuming a MW of 32 kD) stored at −15° C.
Antibodies: Rabbit (α-P-(Ser 217/221)-MEK-1/2 Ab (from Cell Signaling, Cat. #9121B, Lot 14); Eu-(α-rabbit IgG (from Wallac, Cat. #AD0083, Lot 318663, 710 ug/mL, 4.4 μM); (α-6H-SureLight-APC (from Martek, Cat. #AD0059H, Lot E012AB01, 3.03 μM).
as §4, §5, §6, §7, §8, §9, §10, §11
(6) Prepare b-Raf WT ([…]) in KAB.
(7) Add 6 μl/well of KAB in columns 1-2 and 6 μl/well of b-Raf WT in columns 3-24.
as §12
(9) Prepare rabbit (α-P-(Ser 217/221)-MEK-1/2 Ab (1:200 from stock) in AB1: 50 mM HEPES pH7, 0.2 mg/ml BSA, and 43 mM EDTA.
as §13
(11) Prepare Eu-(α-rabbit IgG (9 nM) and (α-6H-SureLight-APC (180 nM) in AB2: 50 mM HEPES pH7 and 0.2 mg/ml BSA.
as §14, §15, §16, §17

Where a name gives a salt, the structure may show the parent alone.

T3 sequence (P15056 416-766 limits assumed): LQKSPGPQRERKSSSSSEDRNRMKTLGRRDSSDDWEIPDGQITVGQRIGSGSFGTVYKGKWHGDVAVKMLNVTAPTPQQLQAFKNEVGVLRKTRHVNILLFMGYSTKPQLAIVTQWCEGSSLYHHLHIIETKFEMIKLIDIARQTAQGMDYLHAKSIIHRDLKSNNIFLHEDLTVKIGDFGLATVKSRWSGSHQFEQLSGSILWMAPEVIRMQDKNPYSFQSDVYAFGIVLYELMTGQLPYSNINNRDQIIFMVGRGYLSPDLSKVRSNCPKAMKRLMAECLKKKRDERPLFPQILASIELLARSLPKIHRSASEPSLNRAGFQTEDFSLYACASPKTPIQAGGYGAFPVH
T1 sequence (P04049 whole entry): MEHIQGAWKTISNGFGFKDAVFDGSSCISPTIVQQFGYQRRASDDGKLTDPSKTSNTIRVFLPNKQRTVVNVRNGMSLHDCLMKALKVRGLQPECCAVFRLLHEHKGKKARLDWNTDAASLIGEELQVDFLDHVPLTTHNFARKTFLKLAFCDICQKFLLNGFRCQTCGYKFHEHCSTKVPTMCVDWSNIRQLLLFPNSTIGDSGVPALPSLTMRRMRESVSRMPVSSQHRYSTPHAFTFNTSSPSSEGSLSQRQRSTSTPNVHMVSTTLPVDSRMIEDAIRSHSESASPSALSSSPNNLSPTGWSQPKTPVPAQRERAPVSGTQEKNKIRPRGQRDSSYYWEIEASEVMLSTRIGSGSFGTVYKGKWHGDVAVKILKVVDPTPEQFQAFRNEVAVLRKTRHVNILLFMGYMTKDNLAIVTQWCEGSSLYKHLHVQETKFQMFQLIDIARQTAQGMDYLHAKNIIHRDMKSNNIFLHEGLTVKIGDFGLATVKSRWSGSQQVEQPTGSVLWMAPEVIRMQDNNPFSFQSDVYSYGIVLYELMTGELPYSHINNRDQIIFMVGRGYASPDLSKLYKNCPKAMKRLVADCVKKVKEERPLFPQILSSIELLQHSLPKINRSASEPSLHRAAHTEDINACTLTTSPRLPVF
T2 sequence (P15056 416-766 V600E): as the sequence (P15056 416-766 limits assumed) above, with V185E counted along it

`CCOC(=O)c1cnc(N)c2c(COc3cccc(-c4nnc(C)o4)c3)csc12` [Example 9, 4-Amino-3-[3-(5-methyl-[1,3,4]oxadiazol-2-yl)-phenoxymethyl]-thieno[3,2-c]pyridine-7-carboxylic acid ethyl ester]: the IC50 is 5420 nM against c-Raf, 997 nM on b-Raf V600E Mutant and 12700 nM on b-Raf Wild-Type.
Consider `Cc1nnc(-c2cccc(OCc3csc4c(C(=O)NCCO)cnc(N)c34)c2)o1` [Example 10, 4-Amino-3-[3-(5-methyl-[1,3,4]oxadiazol-2-yl)-phenoxymethyl]-thieno[3,2-c]pyridine-7-carboxylic acid (2-hydroxy-ethyl)-amide], for which the IC50 at c-Raf worked out at 768 nM; on b-Raf V600E Mutant, 327 nM; on b-Raf Wild-Type it was 1300 nM.
As for `Cc1nnc(-c2ccc(C)c(OCc3csc4c(C(=O)NCCO)cnc(N)c34)c2)o1` [Example 14, 4-Amino-3-[2-methyl-5-(5-methyl-[1,3,4]oxadiazol-2-yl)-phenoxymethyl]-thieno[3,2-c]pyridine-7-carboxylic acid (2-hydroxy-ethyl)-amide trifluoro-acetic acid salt], the IC50 stood at 41 nM against c-Raf, 17 nM on b-Raf V600E Mutant and 117 nM at b-Raf Wild-Type.
On to `Cc1ccc(-c2cn(C)nn2)cc1OCc1csc2c(C(=O)NCCO)cnc(N)c12` [Example 24, 4-Amino-3-[2-methyl-5-(1-methyl-1H-[1,2,3]triazol-4-yl)-phenoxymethyl]-thieno[3,2-c]pyridine-7-carboxylic acid (2-hydroxy-ethyl)-amide], for which the values for the IC50 against c-Raf, at b-Raf V600E Mutant and on b-Raf Wild-Type were 11.9 nM, above 50000 nM and 45 nM, respectively.
Take `COc1ccc(Cn2nnc(-c3cccc(OCc4csc5c(C(=O)NCCO)cnc(N)c45)c3)n2)cc1` [Example 29, 4-Amino-3-{3-[2-(4-methoxy-benzyl)-2H-tetrazol-5-yl]-phenoxymethyl}-thieno[3,2-c]pyridine-7-carboxylic acid (2-hydroxy-ethyl)-amide]: the IC50 came to 231 nM against c-Raf, 94 nM on b-Raf V600E Mutant and 544 nM on b-Raf Wild-Type.
Turning to `Cn1nnc(-c2cccc(OCc3csc4c(C(=O)NCCO)cnc(N)c34)c2)n1` [Example 33, 4-Amino-3-[3-(2-methyl-2H-tetrazol-5-yl)-phenoxymethyl]-thieno[3,2-c]pyridine-7-carboxylic acid (2-hydroxy-ethyl)-amide], the IC50 against c-Raf came out at 341 nM; at b-Raf V600E Mutant it was 258 nM; on b-Raf Wild-Type, 1680 nM.
`Cc1ccc(-c2nnc(-c3ccc(Cl)cc3)o2)cc1OCc1csc2c(C(=O)NCCO)cnc(N)c12` [Example 49, 4-Amino-3-{5-[5-(4-chloro-phenyl)-[1,3,4]oxadiazol-2-yl]-2-methyl-phenoxy-methyl}-thieno[3,2-c]pyridine-7-carboxylic acid (2-hydroxy-ethyl)-amide trifluoroacetic acid salt]: the IC50 against c-Raf worked out at 17 nM; at b-Raf V600E Mutant it was 920 nM; on b-Raf Wild-Type, 5140 nM.

The IC50 is the concentration that gives 50% inhibition.

These data come from US7932390B2, “Substituted thieno[3,2-C]pyridine carboxylic acid derivatives” (Hoffman-La Roche Inc., priority 2006, dated 2011).
